Measurements: ChEMBL document CHEMBL4130363, “Synthesis and pharmacological evaluation of benzamide derivatives as potent and selective sigma-1 protein ligands” (Eur J Med Chem, 2017)

Experiments:
Format in all cases: functional
[1] = biological target: 5-hydroxytryptamine receptor 2B (Homo sapiens) (UniProt P41595); assay: Antagonist activity at recombinant human 5-HT2B assessed as inhibition of agonist-induced effect at 10 uM by aequorin reporter based assay
[2] = biological target: Kappa-type opioid receptor (Homo sapiens) (UniProt P41145); assay: Agonist activity at recombinant human kappa-type opioid receptor at 10 uM by GTPgamma[35S] binding-based assay relative to agonist
Chain of Kappa-type opioid receptor (Homo sapiens) (P41145 whole entry): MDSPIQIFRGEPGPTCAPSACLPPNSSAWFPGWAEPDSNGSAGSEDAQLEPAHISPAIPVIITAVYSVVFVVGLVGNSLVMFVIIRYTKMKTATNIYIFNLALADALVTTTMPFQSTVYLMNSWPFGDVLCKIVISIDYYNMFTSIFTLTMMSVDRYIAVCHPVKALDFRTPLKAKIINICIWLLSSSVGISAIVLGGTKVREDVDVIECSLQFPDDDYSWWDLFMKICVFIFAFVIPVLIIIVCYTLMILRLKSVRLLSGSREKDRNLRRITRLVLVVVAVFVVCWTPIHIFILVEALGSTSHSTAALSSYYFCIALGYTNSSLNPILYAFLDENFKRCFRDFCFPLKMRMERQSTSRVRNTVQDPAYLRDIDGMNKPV

[3] = biological target: Substance-P receptor (Homo sapiens) (UniProt P25103); assay: Agonist activity at recombinant human NK1R at 10 uM by aequorin reporter based assay relative to agonist
Chain of Substance-P receptor (Homo sapiens) (P25103 whole entry): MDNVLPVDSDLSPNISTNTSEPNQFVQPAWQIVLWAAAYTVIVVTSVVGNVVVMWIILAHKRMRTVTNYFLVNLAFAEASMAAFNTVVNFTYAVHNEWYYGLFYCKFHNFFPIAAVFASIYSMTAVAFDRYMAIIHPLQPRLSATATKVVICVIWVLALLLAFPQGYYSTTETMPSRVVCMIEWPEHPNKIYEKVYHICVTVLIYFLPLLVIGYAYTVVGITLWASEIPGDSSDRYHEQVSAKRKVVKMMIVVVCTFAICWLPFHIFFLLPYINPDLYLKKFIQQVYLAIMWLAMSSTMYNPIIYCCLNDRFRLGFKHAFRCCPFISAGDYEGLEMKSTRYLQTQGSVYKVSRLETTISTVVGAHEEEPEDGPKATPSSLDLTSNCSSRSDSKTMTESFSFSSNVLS

[4] = biological target: T1, Alpha-1A adrenergic receptor (Homo sapiens) (UniProt P35348); assay: Agonist activity at recombinant human alpha-1a adrenergic receptor […] at 10 uM by aequorin reporter based assay relative to agonist
T1 sequence (whole entry): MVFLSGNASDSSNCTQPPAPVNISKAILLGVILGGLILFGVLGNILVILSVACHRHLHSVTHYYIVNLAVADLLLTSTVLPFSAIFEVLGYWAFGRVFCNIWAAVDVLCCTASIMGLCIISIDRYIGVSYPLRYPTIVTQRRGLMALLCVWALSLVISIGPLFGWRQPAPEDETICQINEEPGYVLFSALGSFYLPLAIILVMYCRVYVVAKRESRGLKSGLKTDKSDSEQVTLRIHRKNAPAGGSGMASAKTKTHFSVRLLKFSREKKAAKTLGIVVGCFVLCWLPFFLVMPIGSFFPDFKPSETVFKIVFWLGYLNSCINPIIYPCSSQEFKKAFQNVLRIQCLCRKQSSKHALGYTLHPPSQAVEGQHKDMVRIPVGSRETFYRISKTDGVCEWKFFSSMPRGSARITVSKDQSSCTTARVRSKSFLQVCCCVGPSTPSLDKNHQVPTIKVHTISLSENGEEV

[5] = biological target: T2, Type-1 angiotensin II receptor (Homo sapiens) (UniProt P30556); assay: Agonist activity at recombinant human AT1 receptor […] at 10 uM by aequorin reporter based assay relative to agonist
T2 sequence (whole entry): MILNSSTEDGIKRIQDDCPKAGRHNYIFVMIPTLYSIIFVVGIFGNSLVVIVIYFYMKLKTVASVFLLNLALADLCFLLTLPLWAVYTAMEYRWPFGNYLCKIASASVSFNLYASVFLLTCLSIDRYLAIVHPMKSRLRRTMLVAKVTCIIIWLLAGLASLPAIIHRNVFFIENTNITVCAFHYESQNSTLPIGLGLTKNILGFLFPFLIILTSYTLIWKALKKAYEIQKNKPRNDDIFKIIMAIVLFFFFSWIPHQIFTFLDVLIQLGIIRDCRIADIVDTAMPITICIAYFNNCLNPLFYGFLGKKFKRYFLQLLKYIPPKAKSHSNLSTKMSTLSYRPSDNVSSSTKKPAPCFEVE

[6] = biological target: D(1A) dopamine receptor (Homo sapiens) (UniProt P21728); assay: Agonist activity at recombinant human dopamine D1 receptor assessed as induction of cAMP levels at 10 uM by HTRF assay relative to agonist
Chain of D(1A) dopamine receptor (Homo sapiens) (P21728 whole entry): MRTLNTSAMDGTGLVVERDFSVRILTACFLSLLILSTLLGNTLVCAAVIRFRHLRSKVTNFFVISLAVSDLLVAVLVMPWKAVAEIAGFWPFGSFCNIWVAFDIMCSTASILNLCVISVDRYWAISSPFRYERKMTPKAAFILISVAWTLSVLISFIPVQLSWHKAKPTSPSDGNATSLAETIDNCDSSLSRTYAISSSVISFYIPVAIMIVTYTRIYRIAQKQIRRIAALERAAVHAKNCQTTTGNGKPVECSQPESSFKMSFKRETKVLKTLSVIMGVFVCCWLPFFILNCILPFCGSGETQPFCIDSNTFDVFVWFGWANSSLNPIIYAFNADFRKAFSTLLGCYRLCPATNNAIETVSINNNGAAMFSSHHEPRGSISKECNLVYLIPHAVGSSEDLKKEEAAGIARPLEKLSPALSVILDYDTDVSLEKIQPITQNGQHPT

[7] = biological target: T3, Substance-K receptor (Homo sapiens) (UniProt P21452); assay: Antagonist activity at recombinant human NK2R assessed as inhibition of agonist-induced effect at 10 uM by aequorin reporter based assay
T3 sequence (whole entry): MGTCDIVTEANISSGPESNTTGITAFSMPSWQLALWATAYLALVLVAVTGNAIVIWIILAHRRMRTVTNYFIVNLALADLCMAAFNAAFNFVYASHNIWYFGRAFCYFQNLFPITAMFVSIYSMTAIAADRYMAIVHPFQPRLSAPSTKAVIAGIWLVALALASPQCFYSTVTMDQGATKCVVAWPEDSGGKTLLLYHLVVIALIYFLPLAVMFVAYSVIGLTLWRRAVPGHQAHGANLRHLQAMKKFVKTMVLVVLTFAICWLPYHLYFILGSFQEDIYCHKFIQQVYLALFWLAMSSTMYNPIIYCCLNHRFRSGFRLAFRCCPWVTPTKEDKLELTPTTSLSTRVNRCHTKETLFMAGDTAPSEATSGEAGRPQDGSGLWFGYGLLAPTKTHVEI

[8] = biological target: Muscarinic acetylcholine receptor M3 (Homo sapiens) (UniProt P20309); assay: Antagonist activity at recombinant human muscarinic M3 receptor assessed as inhibition of agonist-induced effect at 10 uM by aequorin reporter based assay
Chain of Muscarinic acetylcholine receptor M3 (Homo sapiens) (P20309 whole entry, looked up): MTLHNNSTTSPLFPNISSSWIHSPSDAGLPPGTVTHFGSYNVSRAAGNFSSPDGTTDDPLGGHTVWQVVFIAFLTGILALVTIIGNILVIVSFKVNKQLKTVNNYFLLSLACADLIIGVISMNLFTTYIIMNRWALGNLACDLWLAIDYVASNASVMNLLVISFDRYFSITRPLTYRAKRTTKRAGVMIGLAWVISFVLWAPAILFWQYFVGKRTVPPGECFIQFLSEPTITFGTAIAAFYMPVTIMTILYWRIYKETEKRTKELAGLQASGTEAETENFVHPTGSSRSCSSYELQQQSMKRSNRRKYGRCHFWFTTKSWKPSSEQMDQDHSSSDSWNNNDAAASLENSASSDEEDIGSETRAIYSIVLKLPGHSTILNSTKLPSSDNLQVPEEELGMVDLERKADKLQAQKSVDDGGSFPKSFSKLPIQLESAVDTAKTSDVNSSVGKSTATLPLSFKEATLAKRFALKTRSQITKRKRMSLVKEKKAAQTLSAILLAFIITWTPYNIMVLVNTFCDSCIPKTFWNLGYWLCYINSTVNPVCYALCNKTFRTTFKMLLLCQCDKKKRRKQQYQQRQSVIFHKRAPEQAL

[9] = biological target: T4, Alpha-1B adrenergic receptor (Homo sapiens) (UniProt P35368); assay: Antagonist activity at recombinant human alpha-1b adrenergic receptor assessed as inhibition of agonist-induced […] reporter based assay
T4 sequence (whole entry): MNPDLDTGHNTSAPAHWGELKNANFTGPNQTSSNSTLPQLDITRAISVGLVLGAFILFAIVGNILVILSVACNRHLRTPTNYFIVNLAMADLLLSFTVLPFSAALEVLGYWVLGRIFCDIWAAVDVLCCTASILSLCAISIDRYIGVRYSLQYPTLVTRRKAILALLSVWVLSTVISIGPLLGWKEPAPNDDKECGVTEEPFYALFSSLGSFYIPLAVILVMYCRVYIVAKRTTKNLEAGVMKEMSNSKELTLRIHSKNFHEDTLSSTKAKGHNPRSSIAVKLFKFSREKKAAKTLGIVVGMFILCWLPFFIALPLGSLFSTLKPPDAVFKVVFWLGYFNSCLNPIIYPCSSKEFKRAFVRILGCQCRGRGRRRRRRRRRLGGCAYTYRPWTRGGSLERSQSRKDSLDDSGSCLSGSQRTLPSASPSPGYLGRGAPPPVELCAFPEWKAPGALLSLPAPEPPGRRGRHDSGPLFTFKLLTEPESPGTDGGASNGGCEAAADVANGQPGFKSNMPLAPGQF

[10] = biological target: T5, Vasoactive intestinal polypeptide receptor 1 (Homo sapiens) (UniProt P32241); assay: Agonist activity at recombinant human VPAC1 receptor at 10 uM by aequorin reporter based assay relative to agonist
T5 sequence (whole entry): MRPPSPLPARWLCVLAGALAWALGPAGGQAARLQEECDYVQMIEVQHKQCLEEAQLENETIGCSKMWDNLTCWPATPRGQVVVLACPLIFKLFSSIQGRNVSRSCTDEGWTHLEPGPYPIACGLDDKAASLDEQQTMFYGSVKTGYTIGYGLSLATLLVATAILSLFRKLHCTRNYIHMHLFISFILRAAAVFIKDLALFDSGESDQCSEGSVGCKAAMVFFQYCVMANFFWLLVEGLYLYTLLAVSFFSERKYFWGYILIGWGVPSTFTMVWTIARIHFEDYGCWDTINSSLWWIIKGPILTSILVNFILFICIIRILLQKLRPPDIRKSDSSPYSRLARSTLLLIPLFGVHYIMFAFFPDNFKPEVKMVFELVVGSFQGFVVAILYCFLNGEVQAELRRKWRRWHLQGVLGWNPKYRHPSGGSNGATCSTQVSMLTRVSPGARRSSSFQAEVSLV

[11] = biological target: 5-hydroxytryptamine receptor 1B (Homo sapiens) (UniProt P28222); assay: Antagonist activity at recombinant human 5-HT1B assessed as inhibition of agonist-induced effect at 10 uM by GTPgamma[35S] binding-based assay
Chain of 5-hydroxytryptamine receptor 1B (Homo sapiens) (P28222 whole entry): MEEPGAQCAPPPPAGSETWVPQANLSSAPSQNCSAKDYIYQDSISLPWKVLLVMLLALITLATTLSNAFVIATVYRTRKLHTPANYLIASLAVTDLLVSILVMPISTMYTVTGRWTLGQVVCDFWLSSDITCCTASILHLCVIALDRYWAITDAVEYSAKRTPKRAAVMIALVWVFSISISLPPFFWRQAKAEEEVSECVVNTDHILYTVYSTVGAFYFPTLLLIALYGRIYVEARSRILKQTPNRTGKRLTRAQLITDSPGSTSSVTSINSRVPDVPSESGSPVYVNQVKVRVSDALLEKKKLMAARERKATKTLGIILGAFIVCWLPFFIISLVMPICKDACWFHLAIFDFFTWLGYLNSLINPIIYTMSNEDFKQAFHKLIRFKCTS

Chain of 5-hydroxytryptamine receptor 2B (Homo sapiens) (P41595 whole entry): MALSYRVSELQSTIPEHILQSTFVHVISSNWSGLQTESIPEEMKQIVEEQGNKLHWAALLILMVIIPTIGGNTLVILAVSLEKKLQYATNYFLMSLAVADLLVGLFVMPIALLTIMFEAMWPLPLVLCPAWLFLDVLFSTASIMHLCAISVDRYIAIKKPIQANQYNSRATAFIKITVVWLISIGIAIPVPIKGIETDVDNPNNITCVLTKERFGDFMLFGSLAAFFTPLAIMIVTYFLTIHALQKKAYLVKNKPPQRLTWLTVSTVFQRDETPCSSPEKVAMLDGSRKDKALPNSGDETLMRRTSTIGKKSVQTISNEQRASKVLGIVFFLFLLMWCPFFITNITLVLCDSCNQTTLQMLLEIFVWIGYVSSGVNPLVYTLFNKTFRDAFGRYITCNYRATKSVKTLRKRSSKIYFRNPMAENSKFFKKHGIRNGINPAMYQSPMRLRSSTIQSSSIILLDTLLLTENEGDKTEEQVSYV

Row | SMILES | inhibition [1] | Activity [2] | Activity [3] | Activity [4] | Activity [5] | Activity [6] | inhibition [7] | inhibition [8] | inhibition [9] | Activity [10] | inhibition [11]
1 | CN(CCCNC(=O)c1ccc(Cl)cc1)CCc1ccccc1 | 92% | -1% | 0% | 0% | 0% | -6% | 5% | 40% | 98% | 1% | 65%
2 | CN(CCCNC(=O)c1ccc(C(F)(F)F)cc1)Cc1ccccc1 | 66% | 1% | 0% | 0% | 0% | -4% | 6% | 36% | 70% | 0% | 11%
3 | CCCc1ccc(C(=O)NCCCN(C)Cc2ccccc2)cc1 | 75% | -2% | 0% | 0% | 0% | -2% | 5% | 41% | 72% | -1% | -8%
4 | COc1cccc(C(=O)NCCCN(C)Cc2ccccc2)c1 | 26% | 7% | 0% | 0% | 0% | 8% | 19% | 2% | 56% | 0% | 13%
5 | CN(CCCNC(=O)c1cccc(Br)c1)Cc1ccccc1 | 78% | 6% | 0% | 0% | 0% | -5% | 9% | 43% | 97% | -1% | 35%
6 | COc1ccc(C(=O)NCCCN(C)Cc2ccccc2)cc1 | 16% | 8% | 0% | 0% | 0% | 4% | 22% | 0% | 39% | 0% | 18%

The next lines start with the values.

Row | inhibition [1] | Activity [2] | Activity [3] | Activity [4] | Activity [5] | Activity [6] | inhibition [7] | inhibition [8] | inhibition [9] | Activity [10] | inhibition [11] | SMILES
7 | 58% | 2% | 0% | 0% | 0% | -7% | 18% | 23% | 73% | 0% | 11% | CN(CCCNC(=O)c1ccc(Cl)cc1)Cc1ccccc1
8 | 66% | 5% | 0% | 0% | 0% | -4% | 6% | 35% | 96% | -1% | 1% | CN(CCNC(=O)c1ccc(Cl)cc1)Cc1ccccc1
9 | 35% | 8% | 0% | 0% | 0% | 14% | 15% | 21% | 84% | 0% | 7% | CN(CCNC(=O)c1ccc([N+](=O)[O-])cc1)Cc1ccccc1
10 | 26% | 2% | 0% | 0% | 0% | -1% | 9% | 30% | 63% | -1% | 4% | CN(CCCNC(=O)c1ccc([N+](=O)[O-])cc1)Cc1ccccc1
11 | 16% | 5% | 0% | 0% | 0% | 9% | 29% | 17% | 89% | -1% | 17% | CN(CCNC(=O)c1ccc(C#N)cc1)Cc1ccccc1
12 | 37% | 3% | 0% | 1% | 1% | -7% | 7% | 11% | 81% | 0% | 0% | CN(CCCNC(=O)c1ccc(Br)cc1)Cc1ccccc1
